Structures are written as SMILES.

The target in the test is FXR (Homo sapiens (Human), UniProt Q96RI1). As to the kind of experiment: FXR EC50 (FXR agonist potency reported with each Example). Type of test: cell-based.
FXR, sequence (Q96RI1 262-486): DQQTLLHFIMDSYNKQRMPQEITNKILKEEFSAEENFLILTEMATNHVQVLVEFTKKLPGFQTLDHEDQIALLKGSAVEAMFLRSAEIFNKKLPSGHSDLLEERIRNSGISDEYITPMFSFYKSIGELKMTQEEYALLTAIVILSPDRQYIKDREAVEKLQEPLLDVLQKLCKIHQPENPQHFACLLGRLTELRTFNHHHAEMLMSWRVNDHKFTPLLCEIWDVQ
`CC(C)(C)c1nc(C23CCC(CN(C(=O)C45CC(F)(C4)C5)c4cccc(-c5nc(C6CC6)no5)c4)(CC2)CC3)no1` [Example 119, N-((4-(5-(tert-butyl)-1,2,4-oxadiazol-3-yl)bicyclo[2.2.2]octan-1-yl)methyl)-N-(3-(3-cyclopropyl-1,2,4-oxadiazol-5-yl)phenyl)-3-fluorobicyclo[1.1.1]pentane-1-carboxamide] displayed an EC50 of 15 nM.
In turn, `CC(C)c1nc(C23CCC(CN(C(=O)C45CC(F)(C4)C5)c4cccc(-c5nc(C6CC6)no5)c4)(CC2)CC3)no1` [Example 120, N-(3-(3-cyclopropyl-1,2,4-oxadiazol-5-yl)phenyl)-3-fluoro-N-((4-(5-isopropyl-1,2,4-oxadiazol-3-yl)bicyclo[2.2.2]octan-1-yl)methyl)bicyclo[1.1.1]pentane-1-carboxamide] showed an EC50 of 15 nM.
For `CC(F)(F)c1nc(C23CCC(CN(C(=O)C45CC(F)(C4)C5)c4cccc(-c5nc(C6CC6)no5)c4)(CC2)CC3)no1` [Example 121, N-(3-(3-cyclopropyl-1,2,4-oxadiazol-5-yl)phenyl)-N-((4-(5-(1,1-difluoroethyl)-1,2,4-oxadiazol-3-yl)bicyclo[2.2.2]octan-1-yl)methyl)-3-fluorobicyclo[1.1.1]pentane-1-carboxamide] the value was 22 nM; for `CC1(c2nc(C34CCC(CN(C(=O)C56CC(F)(C5)C6)c5cccc(-c6nc(C7CC7)no6)c5)(CC3)CC4)no2)COC1` [Example 122, N-(3-(3-cyclopropyl-1,2,4-oxadiazol-5-yl)phenyl)-3-fluoro-N-((4-(5-(3-methyloxetan-3-yl)-1,2,4-oxadiazol-3-yl)bicyclo[2.2.2]octan-1-yl)methyl)bicyclo[1.1.1]pentane-1-carboxamide], 28 nM; for `O=C(N(CC12CCC(c3noc(C4CC4(F)F)n3)(CC1)CC2)c1cccc(-c2nc(C3CC3)no2)c1)C12CC(F)(C1)C2` (centres unmarked) [Example 123, N-(3-(3-cyclopropyl-1,2,4-oxadiazol-5-yl)phenyl)-N-((4-(5-(2,2-difluorocyclopropyl)-1,2,4-oxadiazol-3-yl)bicyclo[2.2.2]octan-1-yl)methyl)-3-fluorobicyclo[1.1.1]pentane-1-carboxamide], 73 nM.
For `Cn1nc(C23CCC(CN(C(=O)C45CC(F)(C4)C5)c4cccc(-c5nc(C6CC6)no5)c4)(CC2)CC3)cc1C1CC1` [Example 124, N-(3-(3-cyclopropyl-1,2,4-oxadiazol-5-yl)phenyl)-N-((4-(5-cyclopropyl-1-methyl-1H-pyrazol-3-yl)bicyclo[2.2.2]octan-1-yl)methyl)-3-fluorobicyclo[1.1.1]pentane-1-carboxamide] the value was 89 nM; for `Cn1nc(C23CCC(CN(C(=O)C4CC(F)(F)C4)c4cccc(-c5nc(C6CC6)no5)c4)(CC2)CC3)cc1C1CC1` [Example 125, N-(3-(3-cyclopropyl-1,2,4-oxadiazol-5-yl)phenyl)-N-((4-(5-cyclopropyl-1-methyl-1H-pyrazol-3-yl)bicyclo[2.2.2]octan-1-yl)methyl)-3,3-difluorocyclobutane-1-carboxamide], 480 nM; for `Cn1nc(C2CC2)cc1C12CCC(CN(C(=O)C34CC(F)(C3)C4)c3cccc(-c4nc(C5CC5)no4)c3)(CC1)CC2` [Example 126, N-(3-(3-cyclopropyl-1,2,4-oxadiazol-5-yl)phenyl)-N-((4-(3-cyclopropyl-1-methyl-1H-pyrazol-5-yl)bicyclo[2.2.2]octan-1-yl)methyl)-3-fluorobicyclo[1.1.1]pentane-1-carboxamide], 87 nM.
For `Cn1nc(C2CC2)cc1C12CCC(CN(C(=O)C3CC(F)(F)C3)c3cccc(-c4nc(C5CC5)no4)c3)(CC1)CC2` [Example 127, N-(3-(3-cyclopropyl-1,2,4-oxadiazol-5-yl)phenyl)-N-((4-(3-cyclopropyl-1-methyl-1H-pyrazol-5-yl)bicyclo[2.2.2]octan-1-yl)methyl)-3,3-difluorocyclobutane-1-carboxamide] the value was 374 nM; for `COc1ccc(C23CCC(CN(C(=O)C45CC(F)(C4)C5)c4cccc(-c5nc(C6CC6)no5)c4)(CC2)CO3)cc1` [Example 128, N-(3-(3-Cyclopropyl-1,2,4-oxadiazol-5-yl)phenyl)-3-fluoro-N-((1-(4-methoxyphenyl)-2-oxabicyclo[2.2.2]octan-4-yl)methyl)bicyclo[1.1.1]pentane-1-carboxamide], 403 nM; for `COc1ccc(C23CCC(CN(C(=O)C4CC(F)(F)C4)c4cccc(-c5nc(C6CC6)no5)c4)(CC2)CO3)cc1` [Example 129, N-(3-(3-Cyclopropyl-1,2,4-oxadiazol-5-yl)phenyl)-3,3-difluoro-N-((1-(4-methoxyphenyl)-2-oxabicyclo[2.2.2]octan-4-yl)methyl)cyclobutane-1-carboxamide], 1140 nM.
For `Cn1cc(-c2cccc(N(CC34CCC(c5nc(C6CC6)no5)(CC3)CC4)C(=O)C34CC(F)(C3)C4)c2)nc1C1CC1` [Example 130, N-((4-(3-cyclopropyl-1,2,4-oxadiazol-5-yl)bicyclo[2.2.2]octan-1-yl)methyl)-N-(3-(2-cyclopropyl-1-methyl-1H-imidazol-4-yl)phenyl)-3-fluorobicyclo[1.1.1]pentane-1-carboxamide], the midpoint of the response, the EC50, lay at 585 nM.
Under `Cn1cc(-c2cccc(N(CC34CCC(c5nc(C6CC6)no5)(CC3)CC4)C(=O)C3CC(F)(F)C3)c2)nc1C1CC1` [Example 131, N-((4-(3-cyclopropyl-1,2,4-oxadiazol-5-yl)bicyclo[2.2.2]octan-1-yl)methyl)-N-(3-(2-cyclopropyl-1-methyl-1H-imidazol-4-yl)phenyl)-3,3-difluorocyclobutane-1-carboxamide] stands 1440 nM; under `Cn1c(-c2cccc(N(CC34CCC(c5nc(C6CC6)no5)(CC3)CC4)C(=O)C34CC(F)(C3)C4)c2)nnc1C1CC1` [Example 132, N-((4-(3-cyclopropyl-1,2,4-oxadiazol-5-yl)bicyclo[2.2.2]octan-1-yl)methyl)-N-(3-(5-cyclopropyl-4-methyl-4H-1,2,4-triazol-3-yl)phenyl)-3-fluorobicyclo[1.1.1]pentane-1-carboxamide], 4410 nM.
On to `O=C(C1CC(C(F)F)C1)N(CC12CCC(c3nnc(C4CC4)o3)(CC1)CC2)c1cccc(-c2nnc(C3CC3)o2)c1` (centres unmarked) [Example 134, N-((4-(5-cyclopropyl-1,3,4-oxadiazol-2-yl)bicyclo[2.2.2]octan-1-yl)methyl)-N-(3-(5-cyclopropyl-1,3,4-oxadiazol-2-yl)phenyl)-3-(difluoromethyl)cyclobutane-1-carboxamide], for which the EC50 was 636 nM.
For `O=C(C1CC(F)(F)C1)N(CC12CCC(c3nnc(C4CC4)o3)(CC1)CC2)c1cccc(-c2nnc(C3CC3)o2)c1` [Example 135, N-((4-(5-cyclopropyl-1,3,4-oxadiazol-2-yl)bicyclo[2.2.2]octan-1-yl)methyl)-N-(3-(5-cyclopropyl-1,3,4-oxadiazol-2-yl)phenyl)-3,3-difluorocyclobutane-1-carboxamide] the value was 1110 nM; for `O=C(N(CC12CCC(c3nnc(C4CC4)o3)(CC1)CC2)c1cccc(-c2nnc(C3CC3)o2)c1)C12CC(F)(C1)C2` [Example 136, N-((4-(5-cyclopropyl-1,3,4-oxadiazol-2-yl)bicyclo[2.2.2]octan-1-yl)methyl)-N-(3-(5-cyclopropyl-1,3,4-oxadiazol-2-yl)phenyl)-3-fluorobicyclo[1.1.1]pentane-1-carboxamide], 141 nM.
For the compound `O=C(N(CC12CCC(c3nnc(C4CC4)o3)(CC1)CC2)c1cccc(-c2nc(C3CC3)no2)c1)C12CC(F)(C1)C2` [Example 137, N-(3-(3-cyclopropyl-1,2,4-oxadiazol-5-yl)phenyl)-N-((4-(5-cyclopropyl-1,3,4-oxadiazol-2-yl)bicyclo[2.2.2]octan-1-yl)methyl)-3-fluorobicyclo[1.1.1]pentane-1-carboxamide], the EC50 turned out to be 43 nM.
Under `O=C(C1CC(F)(F)C1)N(CC12CCC(c3nnc(C4CC4)o3)(CC1)CC2)c1cccc(-c2nc(C3CC3)no2)c1` [Example 138, N-(3-(3-cyclopropyl-1,2,4-oxadiazol-5-yl)phenyl)-N-((4-(5-cyclopropyl-1,3,4-oxadiazol-2-yl)bicyclo[2.2.2]octan-1-yl)methyl)-3,3-difluorocyclobutane-1-carboxamide] stands 158 nM; under `O=C(C1CC(C(F)F)C1)N(CC12CCC(c3nnc(C4CC4)o3)(CC1)CC2)c1cccc(-c2nc(C3CC3)no2)c1` (centres unmarked) [Example 139, N-(3-(3-cyclopropyl-1,2,4-oxadiazol-5-yl)phenyl)-N-((4-(5-cyclopropyl-1,3,4-oxadiazol-2-yl)bicyclo[2.2.2]octan-1-yl)methyl)-3-(difluoromethyl)cyclobutane-1-carboxamide], 384 nM; under `COc1ncc(C23CCC(CN(C(=O)C45CC(F)(C4)C5)c4cccc(-c5nc(C6CC6)no5)c4)(CC2)CO3)cn1` [Example 140, N-(3-(3-Cyclopropyl-1,2,4-oxadiazol-5-yl)phenyl)-3-fluoro-N-((1-(2-methoxypyrimidin-5-yl)-2-oxabicyclo[2.2.2]octan-4-yl)methyl)bicyclo[1.1.1]pentane-1-carboxamide], 582 nM.
Take `N#CC1(c2ccc(C34CCC(CN(C(=O)C5CC(C(F)F)C5)c5cccc(-c6nc(C7CC7)no6)c5)(CC3)CO4)cc2)CC1` (centres unmarked) [Example 141, N-((1-(4-(1-Cyanocyclopropyl)phenyl)-2-oxabicyclo[2.2.2]octan-4-yl)methyl)-N-(3-(3-cyclopropyl-1,2,4-oxadiazol-5-yl)phenyl)-3-(difluoromethyl)cyclobutane-1-carboxamide]: the 50% effective concentration (EC50) was 643 nM.
As to `N#CC1(c2ccc(C34CCC(CN(C(=O)C5CC(F)(F)C5)c5cccc(-c6nc(C7CC7)no6)c5)(CC3)CO4)cc2)CC1` [Example 142, N-((1-(4-(1-cyanocyclopropyl)phenyl)-2-oxabicyclo[2.2.2]octan-4-yl)methyl)-N-(3-(3-cyclopropyl-1,2,4-oxadiazol-5-yl)phenyl)-3,3-difluorocyclobutuane-1-carboxamide], the EC50 stood at 583 nM.

For the origin of these results see patent US11254663B2 (BRISTOL-MYERS SQUIBB COMPANY, priority 2019, dated 2022).
